Key:
[1] = test system: human epithelial (A-549) cancer cell line; experiment: Antiproliferative assay, A-549; assay type: cell-based; settings: A549, read-out: Antiproliferative Activity IC50 ± SEM, A-549
Description: (§1) 4.2.1.2. Assay for antiproliferative effect
(§2) To explore the antiproliferative potential of compounds propidium iodide fluorescence assay was performed using different cell lines such as Panc-1 (pancreas cancer cell line), MCF-7 (breast cancer cell line), HT-29 (colon cancer cell line) and A-549 (epithelial cancer cell line), respectively.
(§3) To calculate the total nuclear DNA, a fluorescent dye (propidium iodide, PI) is used which can attach to the DNA, thus offering a quick and precise technique. PI cannot pass through the cell membrane and its signal intensity can be considered as directly proportional to quantity of cellular
(§4) DNA. Cells whose cell membranes are damaged or have changed permeability are counted as dead ones. The assay was performed by seeding the cells of different cell lines at a density of 3000-7500 cells/well (in200μl medium) in culture plates followed by incubation for 24h at 37 °C in humidified 5%CO2/95% air atmospheric conditions. The medium was removed; the compounds were added to the plates at 10 μM concentrations (in 0.1% DMSO) in triplicates, followed by incubation for 48h. DMSO (0.1%) was used as control. After incubation, medium was removed followed by the addition of PI (25 μl, 50μg/mL in water/medium) to each well of the plates. At - 80 °C, the plates were allowed to freeze for 24 h, followed by thawing at 25 °C. A fluorometer (Polar-Star BMG Tech) was used to record the readings at excitation and emission wavelengths of 530 and 620 nm for each well. The percentage cytotoxicity of compounds was calculated using […]
(§5) Where ATC= Absorbance of treated cells and AC= Absorbance of control. Erlotinib was used as positive control in the assay.

[2] = test system: breast cancer (MCF-7) cell line; experiment: Antiproliferative assay, MCF-7; assay type: cell-based; settings: Homo sapiens, MCF7; read-out: Antiproliferative Activity IC50 ± SEM, MCF-7
Description: as §1, §2, §3, §4, §5

[3] = test system: colon cancer (HT-29) cell line; experiment: Antiproliferative assay, HT-29; assay type: cell-based; settings: Homo sapiens, read-out: Antiproliferative Activity IC50 ± SEM, HT-29
Description: as §1, §2, §3, §4, §5

[4] = Cell viability assay (MTT) on MCF-10A; assay type: cell-based; settings: human, MCF-10A mammary gland epithelial cells, MCF-10A cells, four days
Description: To assess the viability of compounds IV and Va–i, the human mammary gland epithelial (MCF-10A) cell line was exploited. Compounds IV and Va–i were cultured for four days on MCF-10A cells before being evaluated for vitality using the MTT assay.
To test the viability of the new compounds, the human mammary gland epithelial (MCF-10A) cell line was used. Compounds IV and Va–i were incubated on MCF-10A cells for four days before being tested for viability using the MTT assay. See Supplementary Materials.
4.2. Biological evaluation
4.2.1. Cytotoxic activity using MTT Assay and evaluation of IC50
MTT assay was performed to investigate the effect of the synthesized compounds on mammary epithelial cells (MCF-10A). The cells were propagated in medium consisting of Ham's F-12 medium/ Dulbecco's modified Eagle's medium (DMEM) (1:1) supplemented with 10% foetal calf serum, 2 mM glutamine, insulin (10 μg/mL), hydrocortisone (500 ng/mL) and epidermal growth factor (20 ng/mL). Trypsin ethylenediamine tetra acetic acid (EDTA) was used to passage the cells after every 2-3 days. 96-well flat-bottomed cell culture plates were used to seed the cells at a density of 10^4 cells mL-1. The medium was aspirated from all the wells of culture plates after 24 h followed by the addition of synthesized compounds (in 200 μL medium to yield a final concentration of 0.1% (v/v) dimethyl sulfoxide) into individual wells of the plates. Four wells were designated to a single compound. The plates were allowed to incubate at 37°C for 96 h. Afterwards, the medium was aspirated and 3-[4,5-dimethylthiazol-2-yl]-2,5-diphenyltetrazolium bromide (MTT) (0.4 mg/mL) in medium was added to each well and subsequently incubated for 3 h. The medium was aspirated and 150 μL dimethyl sulfoxide (DMSO) was added to each well. The plates were vortexed followed by the measurement of absorbance at 540 nm on a microplate reader. The results were presented as inhibition (%) of proliferation in contrast to controls comprising 0.1%

[5] = test system: four human cancer cell lines (A-549, MCF-7, Panc-1, HT-29); experiment: Antiproliferative assay, average over the four cancer cell lines (GI50); assay type: cell-based; settings: average of the four cancer cell lines
Description: See Supplementary Materials.
as §1
To explore the antiproliferative potential of compounds propidium iodide fluorescence assay was performed using different cell lines such as Panc-1 (pancreas cancer cell line), MCF-7 (breast […]
as §3
DNA. Cells whose cell membranes are damaged or have changed permeability are counted as dead ones. The assay was performed by seeding the cells of different cell lines at a density of 3000- […]
The medium was removed; the compounds were added to the plates at 10 μM concentrations (in 0.1% DMSO) in triplicates, followed by incubation for 48h. DMSO (0.1%) was used as control. After incubation, medium was removed followed by the addition of PI (25 μl, 50μg/mL in water/medium) to each well of the plates. At - 80 °C, the plates were allowed to freeze for 24 h, followed by thawing at 25 °C. A fluorometer (Polar-Star BMG Tech) was used to record the readings at excitation and emission wavelengths of 530 and 620 nm for each well. The percentage cytotoxicity of compounds was calculated using […]
Where ATC= Absorbance of treated cells and AC= Absorbance of control. […]
positive control in the assay.

[6] = test system: pancreatic cancer (Panc-1) cell line; experiment: Antiproliferative assay, Panc-1; assay type: cell-based; settings: Homo sapiens, read-out: Antiproliferative Activity IC50 ± SEM, Panc-1
Description: as §1, §2, §3, §4, §5

SMILES	IC50 [1] [nM]	IC50 [2] [nM]	IC50 [3] [nM]	viability at 96 h, 50 µM [4] [%]	GI50 [5] [nM]	IC50 [6] [nM]	melting point [°C]
NCC(c1ccccc1)c1c(-c2ccccc2)[nH]c2ccccc12 (stereo not drawn) [Compound IV, 2-phenyl-2-(2-phenyl-1H-indol-3-yl)ethan-1-amine]	102 ± 10	106 ± 10	104 ± 10	92	104	104 ± 10	167 to 169
CCc1c(C(=O)NCC(c2ccccc2)c2c(-c3ccccc3)[nH]c3ccccc23)[nH]c2ccc(Cl)cc12 (stereo not drawn) [Compound Vc, 5-Chloro-3-ethyl-N-(2-phenyl-2-(2-phenyl-1H-indol-3-yl)ethyl)-1H-indole-2-carboxamide]	54 ± 5	57 ± 5	55 ± 5	91	56	56 ± 5	110 to 112
C#Cc1cccc(Nc2ncnc3cc(OCCOC)c(OCCOC)cc23)c1 [Erlotinib, reference compound]	30 ± 3	40 ± 3	30 ± 3			30 ± 3	
Cc1c(C(=O)NCC(c2ccccc2)c2c(-c3ccccc3)[nH]c3ccccc23)[nH]c2ccc(Cl)cc12 (stereo not drawn) [Vb, 5-Chloro-3-methyl-N-(2-phenyl-2-(2-phenyl-1H-indol-3-yl)ethyl)-1H-indole-2-carboxamide]	58 ± 5	61 ± 6	59 ± 5	88	59	58 ± 5	135 to 137
CCc1c(C(=O)NCC(c2ccccc2)c2c(-c3ccccc3)[nH]c3ccccc23)[nH]c2ccc(Br)cc12 (stereo not drawn) [Vd, 5-Bromo-3-ethyl-N-(2-phenyl-2-(2-phenyl-1H-indol-3-yl)ethyl)-1H-indole-2-carboxamide]	64 ± 6	68 ± 6	66 ± 6	89	66	66 ± 6	130 to 132
CCc1c(C(=O)NCC(c2ccccc2)c2c(-c3ccccc3)[nH]c3ccccc23)oc2ccc(Cl)cc12 (stereo not drawn) [Vi, 5-Chloro-3-ethyl-N-(2-phenyl-2-(2-phenyl-1H-indol-3-yl)ethyl)benzofuran-2-carboxamide]	86 ± 8	89 ± 8	85 ± 8	89	86	85 ± 8	225 to 227

— publication PMC10385579, “Design, Synthesis, and Biological Evaluation of Indole-2-carboxamides as Potential Multi-Target Antiproliferative Agents” (Pharmaceuticals, 2023)
